Assay [1] concerns erythroid progenitor cells (EPCs). The assay can be described thus: Fetal hemoglobin (HbF) ELISA in day 7 erythroid progenitor cells.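 Further: for fetal hemoglobin induction normalized to vehicle-treated cells.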 It counts as cell-based, human. The following applies: Homo sapiens, Erythroid progenitor cell, HbF ELISA, day 7 EPCs, 5 days; read-out: EPC ELISA (pEC50 category) (converted). The method, boiled down:
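Day 7 EPCs from human bone marrow CD34+ cells were plated at 1,000 cells/well in media with 3 U/mL rhEPO. They were exposed to a 22-point dilution ([…]) for 5 days at 37 °C. Lysate HbF was measured by sandwich ELISA (OD450) and normalized to DMSO control wells.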
Background: An ELISA detects its analyte on a solid surface through an enzyme-linked reagent.

In a further assay the target is DNMT1 (Homo sapiens, UniProt P26358). Briefly: DNMT1 biochemical activity, breaklight assay and/or SPA assay.
Chain of DNMT1 (P26358 whole entry, looked up): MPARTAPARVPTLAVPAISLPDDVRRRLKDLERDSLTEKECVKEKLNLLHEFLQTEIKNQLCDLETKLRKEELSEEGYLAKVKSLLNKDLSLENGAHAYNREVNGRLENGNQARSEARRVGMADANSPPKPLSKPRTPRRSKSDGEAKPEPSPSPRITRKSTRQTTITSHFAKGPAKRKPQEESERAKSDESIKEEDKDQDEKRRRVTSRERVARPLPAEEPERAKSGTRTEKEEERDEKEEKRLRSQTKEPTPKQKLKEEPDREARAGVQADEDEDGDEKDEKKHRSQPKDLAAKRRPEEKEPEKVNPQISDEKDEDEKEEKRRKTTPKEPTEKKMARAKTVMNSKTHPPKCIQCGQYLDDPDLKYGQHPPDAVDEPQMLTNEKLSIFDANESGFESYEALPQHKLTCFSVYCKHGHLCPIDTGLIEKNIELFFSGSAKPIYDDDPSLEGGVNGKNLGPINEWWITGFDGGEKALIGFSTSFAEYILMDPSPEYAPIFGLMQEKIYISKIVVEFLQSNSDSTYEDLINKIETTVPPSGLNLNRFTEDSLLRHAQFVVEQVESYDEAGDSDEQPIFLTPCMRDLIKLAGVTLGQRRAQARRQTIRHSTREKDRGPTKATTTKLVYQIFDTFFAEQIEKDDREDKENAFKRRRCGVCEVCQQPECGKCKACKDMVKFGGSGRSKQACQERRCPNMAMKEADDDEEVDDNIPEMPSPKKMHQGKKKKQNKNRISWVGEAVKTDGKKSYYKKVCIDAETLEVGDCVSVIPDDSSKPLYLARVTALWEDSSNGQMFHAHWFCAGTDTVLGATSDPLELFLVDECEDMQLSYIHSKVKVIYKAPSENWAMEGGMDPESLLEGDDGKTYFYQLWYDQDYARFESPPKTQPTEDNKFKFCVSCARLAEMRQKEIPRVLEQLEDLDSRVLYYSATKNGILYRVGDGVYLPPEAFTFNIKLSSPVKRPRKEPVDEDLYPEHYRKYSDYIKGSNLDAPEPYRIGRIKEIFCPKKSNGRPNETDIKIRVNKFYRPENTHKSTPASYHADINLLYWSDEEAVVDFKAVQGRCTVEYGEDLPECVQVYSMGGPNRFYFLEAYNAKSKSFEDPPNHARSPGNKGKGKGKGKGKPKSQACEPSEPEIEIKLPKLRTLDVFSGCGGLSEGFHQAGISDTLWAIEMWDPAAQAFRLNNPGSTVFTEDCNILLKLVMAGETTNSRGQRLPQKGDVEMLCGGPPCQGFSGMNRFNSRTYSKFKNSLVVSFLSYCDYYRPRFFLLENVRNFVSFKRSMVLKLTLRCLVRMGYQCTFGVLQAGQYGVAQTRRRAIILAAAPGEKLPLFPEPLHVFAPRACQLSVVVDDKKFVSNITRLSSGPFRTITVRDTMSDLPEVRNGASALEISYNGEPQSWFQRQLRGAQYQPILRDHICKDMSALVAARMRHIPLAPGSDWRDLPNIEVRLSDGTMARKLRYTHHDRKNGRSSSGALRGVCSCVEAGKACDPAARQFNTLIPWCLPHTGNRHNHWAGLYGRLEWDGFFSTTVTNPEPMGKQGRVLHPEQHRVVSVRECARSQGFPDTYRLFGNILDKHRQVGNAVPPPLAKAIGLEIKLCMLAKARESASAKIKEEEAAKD
Where [2] appears, read: binned activity in either the breaklight or the SPA assay, read-out: DNMT1 BioChemical (pIC50 category) (converted).
Where [3] appears, read: breaklight assay and/or SPA assay, repeated experimental runs, read-out: average pIC50 against DNMT1 (converted).
The mark [4] stands for this setting: binned activity in either the breaklight or the SPA assay.

The structures appear in SMILES notation. “And” between values parts separate entries of the source, which are not always exact repeats. Equal values may be shown once. Where a name gives a salt, the structure may show the parent alone. Read-outs that look alike come from different tables or passages of the source.

With `CCc1c(C#N)c(SC(C(N)=O)c2ccccc2)nc(N2CCC3(CCCN(CC4CC4)C3)CC2)c1C#N` (stereo not shown) [Example 119, 2-((3,5-Dicyano-6-(2-(cyclopropylmethyl)-2,9-diazaspiro[5.5]undecan-9-yl)-4-ethylpyridin-2-yl)thio)-2-phenylacetamide hydrochloride], in assay [1], the EC50 was below 0.316 µM. Moreover, the IC50 was 0.316 to 1 µM at DNMT1 (setting [2]); 0.316 to 1 µM and 0.398 µM at DNMT1 (setting [3]).

In the case of `CCc1c(C#N)c(SC(C(N)=O)c2ccccc2)nc(N2CCC(CO)(NCCO)CC2)c1C#N` (stereo not shown) [Example 661, 2-((3,5-dicyano-4-ethyl-6-(4-((2-hydroxyethyl)amino)-4-(hydroxymethyl)piperidin-1-yl)pyridin-2-yl)thio)-2-phenylacetamide], the EC50 in assay [1] is 1 to 31.6 µM. Besides, the “DNMT1 BioChemical (pIC50 category)” value on DNMT1 (setting [4]) is “D (Category D: ≥6.5)”.

For the compound `CCc1c(C#N)c(SC(C(N)=O)c2ccncc2)nc(N(C)C)c1C#N` (stereo not shown) [Example 27, 2-((3,5-dicyano-6-(dimethylamino)-4-ethylpyridin-2-yl)thio)-2-(pyridin-4-yl)acetamide], the EC50 in assay [1] was above 31.6 µM. The “DNMT1 BioChemical (pIC50 category)” value at DNMT1 (setting [4]) is on record as “D (Category D: ≥6.5)”.

For the compound `CCc1c(C#N)c(SC(C(N)=O)c2ccccc2)nc(N2CC(ONC(=N)N)C2)c1C#N` (stereo not shown) [Example 676, 2-((3,5-dicyano-4-ethyl-6-(3-(guanidinooxy)azetidin-1-yl)pyridin-2-yl)thio)-2-phenylacetamide], the EC50 in assay [1] was 1 to 31.6 µM. Further, at DNMT1 (setting [4]), the “DNMT1 BioChemical (pIC50 category)” value is “D (Category D: ≥6.5)”.

Regarding `CCc1c(C#N)c(SC(C(N)=O)c2ccccc2)nc(N2CCC(C#N)CC2)c1C#N` (stereo not shown) [Example 319, 2-((3,5-Dicyano-6-(4-cyanopiperidin-1-yl)-4-ethylpyridin-2-yl)thio)-2-phenylacetamide], the EC50 in assay [1] is 0.316 to 1 µM. Further, on DNMT1 (setting [2]), the IC50 is 1 to 31.6 µM.

As for `CCc1c(C#N)c(SC(C(N)=O)c2ccccc2)nc(N2CC(OC(N)=O)C2)c1C#N` (stereo not shown) [Example 259, 1-(6-((2-Amino-2-oxo-1-phenylethylthio-3,5-dicyano-4-ethylpyridin-2-yl)azetidin-3-yl carbamate], the EC50 in assay [1] is 0.316 to 1 µM. The “DNMT1 BioChemical (pIC50 category)” value at DNMT1 (setting [4]) was “D (Category D: ≥6.5)”.

Turning to `N#Cc1c(SC(C(N)=O)c2ccccc2)nc(N2CCC(CN3CCCC3)CC2)c(C#N)c1C1CC1` (stereo not shown) [Example 39, 2-((3,5-Dicyano-4-cyclopropyl-6-(4-(pyrrolidin-1-ylmethyl)piperidin-1-yl)pyridin-2-yl)thio)-2-phenylacetamide], the EC50 in assay [1] was below 0.316 µM. Moreover, the “DNMT1 BioChemical (pIC50 category)” value at DNMT1 (setting [4]) is on record as “D (Category D: ≥6.5)”.

As for `CCc1c(C#N)c(SC(C(N)=O)c2ccccc2)nc(N(C)Cc2cc[nH]n2)c1C#N` (stereo not shown) [Example 356, 2-((6-(((1H-Pyrazol-3-yl)methyl)(methyl)amino)-3,5-dicyano-4-ethylpyridin-2-yl)thio)-2-phenylacetamide], the EC50 in assay [1] is 0.316 to 1 µM. Further, at DNMT1 (setting [4]), the “DNMT1 BioChemical (pIC50 category)” value is reported as “D (Category D: ≥6.5)”.

In the case of `CCc1c(C#N)c(SC(C(N)=O)c2ccc(F)cc2)nc(N2CCN(C(C)(C)CO)CC2)c1C#N` (stereo not shown) [Example 222, 2-((3,5-Dicyano-4-ethyl-6-(4-(1-hydroxy-2-methylpropan-2-yl)piperazin-1-yl)pyridin-2-yl)thio)-2-(4-fluorophenyl)acetamide], the EC50 in assay [1] was 0.316 to 1 µM. At DNMT1 (setting [2]), the IC50 is 1 to 31.6 µM.

For `CCc1c(C#N)c(SCc2cnn(CCO)c2)nc(N2CCC(N)CC2)c1C#N` [Example 363], the EC50 in assay [1] was 1 to 31.6 µM. Besides, the IC50 on DNMT1 (setting [2]) is 0.316 to 1 µM.

As for `CCc1c(C#N)c(SC(C(N)=O)c2ccccc2)nc(N2CCN(Cc3ccon3)CC2)c1C#N` (stereo not shown) [Example 183, 2-((3,5-Dicyano-4-ethyl-6-(4-(isoxazol-3-ylmethyl)piperazin-1-yl)pyridin-2-yl)thio)-2-phenylacetamide], the EC50 in assay [1] is 1 to 31.6 µM. For the same compound, the IC50 at DNMT1 (setting [2]) was 0.316 to 1 µM.

As for `CCc1c(Cl)c(SC(C(N)=O)c2ccccc2)nc(N2CCCN(CCO)CC2)c1Cl` (stereo not shown) [Example 203, 2-((3,5-Dichloro-4-ethyl-6-(4-(2-hydroxyethyl)-1,4-diazepan-1-yl)pyridin-2-yl)thio)-2-phenylacetamide], in assay [1], the EC50 is above 31.6 µM. Further, the IC50 at DNMT1 (setting [2]) is 0.316 to 1 µM.

`N#Cc1c(SC(C(N)=O)c2ccccc2)nc(N2CCC(NC(=O)CN)CC2)c(C#N)c1C1CC1` (stereo not shown) [Example 642, 2-amino-N-(1-(6-((2-amino-2-oxo-1-phenylethyl)thio)-3,5-dicyano-4-cyclopropylpyridin-2-yl)piperidin-4-yl)acetamide formate]: the EC50 in assay [1] is 1 to 31.6 µM. The “DNMT1 BioChemical (pIC50 category)” value at DNMT1 (setting [4]) is on record as “D (Category D: ≥6.5)”.

For `CCc1c(C#N)c(SC(C(N)=O)c2ccccc2)nc(N2CCN(Cc3ccc[nH]3)CC2)c1C#N` (stereo not shown) [Example 177, 2-((6-(4-((1H-Pyrrol-2-yl)methyl)piperazin-1-yl)-3,5-dicyano-4-ethylpyridin-2-yl)thio)-2-phenylacetamide], the EC50 in assay [1] is 1 to 31.6 µM. For the same compound, at DNMT1 (setting [2]), the IC50 was 0.316 to 1 µM.

Take `CCc1c(C#N)c(SCc2ccc(OS(C)(=O)=O)cc2)nc(N2CCC(N)CC2)c1C#N` [Example 626, 4-(((6-(4-aminopiperidin-1-yl)-3,5-dicyano-4-ethylpyridin-2-yl)thio)methyl)phenyl methanesulfonate 2,2,2-trifluoroacetate]: the EC50 in assay [1] was below 0.316 µM. For the same compound, the “DNMT1 BioChemical (pIC50 category)” value at DNMT1 (setting [4]) is recorded as “D (Category D: ≥6.5)”. Further, the “average pIC50 against DNMT1” value on DNMT1 (breaklight assay and/or SPA assay, repeated experimental runs, methanesulfonate 2,2,2-trifluoroacetate) is listed as above 6.5. Moreover, the IC50 on DNMT1 (setting [3]) is 0.2 µM.

As to `CCc1c(C#N)c(SC(C(N)=O)c2ccccc2)nc(N2CCC3(CC2)COC(=O)N3)c1C#N` (stereo not shown) [Example 241, 2-((3,5-Dicyano-4-ethyl-6-(2-oxo-3-oxa-1,8-diazaspiro[4.5]decan-8-yl)pyridin-2-yl)thio)-2-phenylacetamide], the EC50 in assay [1] is 1 to 31.6 µM. Moreover, the IC50 on DNMT1 (setting [2]) was 0.316 to 1 µM.

With `CCc1c(C#N)c(SCc2ccc(N(C)S(C)(=O)=O)cc2)nc(N(C)CCNC2(C)CC2)c1C#N` [Example 481, N-(4-(((3,5-dicyano-4-ethyl-6-(methyl(2-((1-methylcyclopropyl)amino)ethyl)amino)pyridin-2-yl)thio)methyl)phenyl)-N-methylmethanesulfonamide], the EC50 in assay [1] was below 0.316 µM. Also, the “DNMT1 BioChemical (pIC50 category)” value at DNMT1 (setting [4]) is reported as “D (Category D: ≥6.5)”.

As to `CCc1c(C#N)c(SCc2ccc(C(=O)Nc3cn[nH]c3)cc2)nc(N2CCCN(C)CC2)c1C#N` [Example 543, 4-(((3,5-dicyano-4-ethyl-6-(4-methyl-1,4-diazepan-1-yl)pyridin-2-yl)thio)methyl)-N-(1H-pyrazol-4-yl)benzamide], the EC50 in assay [1] is above 31.6 µM. For the same compound, the “DNMT1 BioChemical (pIC50 category)” value on DNMT1 (setting [4]) is recorded as “D (Category D: ≥6.5)”.

Consider `CCc1c(C#N)c(SC(C(N)=O)c2ccccc2)nc(N2CCC(N(C)CC(C)(C)O)CC2)c1C#N` (stereo not shown) [Example 444, 2-((3,5-dicyano-4-ethyl-6-(4-((2-hydroxy-2-methylpropyl)(methyl)amino)piperidin-1-yl)pyridin-2-yl)thio)-2-phenylacetamide], for which, in assay [1], the EC50 was below 0.316 µM. In addition, on DNMT1 (setting [4]), the “DNMT1 BioChemical (pIC50 category)” value was “D (Category D: ≥6.5)”.

On to `CCc1c(C#N)c(SC(C(N)=O)c2ccccc2)nc(N2CCCC(CN(C)C)C2)c1C#N` (stereo not shown) [Example 565, 2-((3,5-dicyano-6-(3-((dimethylamino)methyl)piperidin-1-yl)-4-ethylpyridin-2-yl)thio)-2-phenylacetamide], for which the EC50 in assay [1] was below 0.316 µM. In addition, the IC50 on DNMT1 (setting [2]) was below 0.316 µM.

These data come from patent publication US10975056B2 (GlaxoSmithKline Intellectual Property Development Limited, priority 2016, dated 2021).
